For ten cell lines, relative viability results are on record in the supplement of paper PMC10307832.

What all share (experiment): relative viability (nuclei count vs DMSO), 5 days (fraction); higher = more cells survive
Compound in the experiment “Ispinesib + Foretinib”: Cc1ccc(C(=O)N(CCCN)[C@@H](c2nc3cc(Cl)ccc3c(=O)n2Cc2ccccc2)C(C)C)cc1 [Ispinesib] + COc1cc2c(Oc3ccc(NC(=O)C4(C(=O)Nc5ccc(F)cc5)CC4)cc3F)ccnc2cc1OCCCN1CCOCC1 [Foretinib] (partner 0.25 µM)
The procedure, abridged:
(§1)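 After 5 days of treatment, lung cancer cells in 1536-well plates were fixed and stained in a single step (final 0.05% Triton X-100, 1% formaldehyde, 1 ug/ml Hoechst) and their nuclei counted on 4× images. Treatment had been applied by pin tool the day after seeding as one drug alone or as a fixed anchor-drug dose with five library-drug doses (not always all listed) in √10 steps. Relative viability is the nuclei count of treated wells divided by that of vehicle wells, and values are medians of duplicate plates.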

Compound in the experiment “Ispinesib + OSI-027”: Cc1ccc(C(=O)N(CCCN)[C@@H](c2nc3cc(Cl)ccc3c(=O)n2Cc2ccccc2)C(C)C)cc1 [Ispinesib] + COc1cccc2cc(-c3nc([C@H]4CC[C@H](C(=O)O)CC4)n4ncnc(N)c34)[nH]c12 [OSI-027] (partner 0.5 µM)
The method in brief:
as §1

Compound in the experiment “Linsitinib + Tozasertib”: C[C@]1(O)C[C@@H](c2nc(-c3ccc4ccc(-c5ccccc5)nc4c3)c3c(N)nccn32)C1 [Linsitinib] + Cc1cc(Nc2cc(N3CCN(C)CC3)nc(Sc3ccc(NC(=O)C4CC4)cc3)n2)n[nH]1 [Tozasertib] (partner 0.1 µM)
The procedure, abridged: as §1

Compound in the experiment “Ispinesib + AZD7762”: Cc1ccc(C(=O)N(CCCN)[C@@H](c2nc3cc(Cl)ccc3c(=O)n2Cc2ccccc2)C(C)C)cc1 [Ispinesib] + NC(=O)Nc1cc(-c2cccc(F)c2)sc1C(=O)N[C@H]1CCCNC1 [AZD7762] (partner 0.2 µM)
The method in brief:
as §1

NCI-H2347: the relative viability is 1.12 with Ispinesib + Foretinib (first compound 0.003162 µM); 1.16 with Ispinesib + Foretinib (first compound 0.01 µM); 0.669 in the experiment with Ispinesib + Foretinib (first compound 0.03162 µM); 0.904 with Ispinesib + Foretinib (first compound 0.1 µM); 0.317 with Ispinesib + OSI-027 (first compound 0.001 µM); 0.421 in the experiment with Ispinesib + OSI-027 (first compound 0.003162 µM). The relative viability with Ispinesib + OSI-027 (first compound 0.01 µM) was found to be 0.456; with Ispinesib + OSI-027 (first compound 0.03162 µM) it was 0.368; with Ispinesib + OSI-027 (first compound 0.1 µM), 0.437; in the experiment with Linsitinib + Tozasertib (first compound 0.01 µM), 0.557; with Linsitinib + Tozasertib (first compound 0.03162 µM), 0.669; with Linsitinib + Tozasertib (first compound 0.1 µM) it was 0.571. The relative viability with Linsitinib + Tozasertib (first compound 1 µM) was 0.414; in the experiment with Ispinesib + AZD7762 (first compound 0.001 µM), 0.558; with Ispinesib + AZD7762 (first compound 0.003162 µM), 0.856; with Ispinesib + AZD7762 (first compound 0.01 µM) it was 0.745; with Ispinesib + AZD7762 (first compound 0.03162 µM) it was 0.701; with Ispinesib + AZD7762 (first compound 0.1 µM) it was 0.636.
In the case of NCI-H1651, the relative viability stood at 0.973 in the experiment with Ispinesib + Foretinib (first compound 0.001 µM); 0.768 with Ispinesib + Foretinib (first compound 0.003162 µM); 1.01 in the experiment with Ispinesib + Foretinib (first compound 0.01 µM); 0.561 with Ispinesib + Foretinib (first compound 0.03162 µM); 0.147 with Ispinesib + Foretinib (first compound 0.1 µM); 0.837 in the experiment with Ispinesib + OSI-027 (first compound 0.001 µM). The relative viability stood at 0.696 with Ispinesib + OSI-027 (first compound 0.003162 µM); 0.848 with Ispinesib + OSI-027 (first compound 0.01 µM); 0.684 in the experiment with Ispinesib + OSI-027 (first compound 0.03162 µM); 0.137 with Ispinesib + OSI-027 (first compound 0.1 µM); 0.619 in the experiment with Linsitinib + Tozasertib (first compound 0.01 µM); 0.646 with Linsitinib + Tozasertib (first compound 0.03162 µM). Further, the relative viability with Linsitinib + Tozasertib (first compound 0.1 µM) was 0.714; with Linsitinib + Tozasertib (first compound 0.3162 µM) it was 0.484; with Linsitinib + Tozasertib (first compound 1 µM), 0.513; with Ispinesib + AZD7762 (first compound 0.001 µM), 0.531; with Ispinesib + AZD7762 (first compound 0.003162 µM), 0.561; with Ispinesib + AZD7762 (first compound 0.01 µM), 0.524. For the same cell line, the relative viability in the experiment with Ispinesib + AZD7762 (first compound 0.03162 µM) was 0.441; with Ispinesib + AZD7762 (first compound 0.1 µM), 0.408.
For Calu-6, the relative viability in the experiment with Ispinesib + Foretinib (first compound 0.001 µM) was 0.981; with Ispinesib + Foretinib (first compound 0.003162 µM), 0.887; in the experiment with Ispinesib + Foretinib (first compound 0.01 µM), 0.854; with Ispinesib + Foretinib (first compound 0.03162 µM), 0.39; with Ispinesib + Foretinib (first compound 0.1 µM), 0.125.
In the case of NCI-H522, the relative viability with Ispinesib + OSI-027 (first compound 0.001 µM) was found to be 0.746; with Ispinesib + OSI-027 (first compound 0.003162 µM) it was 0.759; with Ispinesib + OSI-027 (first compound 0.01 µM), 0.715; in the experiment with Ispinesib + OSI-027 (first compound 0.03162 µM), 0.555; with Ispinesib + OSI-027 (first compound 0.1 µM), 0.414; in the experiment with Linsitinib + Tozasertib (first compound 0.01 µM), 0.525. In addition, the relative viability with Linsitinib + Tozasertib (first compound 0.03162 µM) was 0.516; with Linsitinib + Tozasertib (first compound 0.1 µM) it was 0.521; in the experiment with Linsitinib + Tozasertib (first compound 1 µM) it was 0.514; with Ispinesib + AZD7762 (first compound 0.001 µM), 0.782; with Ispinesib + AZD7762 (first compound 0.003162 µM), 1.01; in the experiment with Ispinesib + AZD7762 (first compound 0.01 µM), 0.913. Also, the relative viability with Ispinesib + AZD7762 (first compound 0.03162 µM) was 0.845; in the experiment with Ispinesib + AZD7762 (first compound 0.1 µM) it was 0.316.
In the case of NCI-H2228, the relative viability in the experiment with Ispinesib + Foretinib (first compound 0.001 µM) was 0.909; with Ispinesib + Foretinib (first compound 0.003162 µM), 0.957; in the experiment with Ispinesib + Foretinib (first compound 0.01 µM), 1.24; in the experiment with Ispinesib + Foretinib (first compound 0.03162 µM), 1; in the experiment with Ispinesib + Foretinib (first compound 0.1 µM) it was 0.322; in the experiment with Ispinesib + OSI-027 (first compound 0.001 µM), 0.609. Moreover, the relative viability with Ispinesib + OSI-027 (first compound 0.003162 µM) is 0.553; in the experiment with Ispinesib + OSI-027 (first compound 0.01 µM), 0.636; with Ispinesib + OSI-027 (first compound 0.03162 µM) it was 0.222; with Ispinesib + OSI-027 (first compound 0.1 µM) it was 0.209; with Linsitinib + Tozasertib (first compound 0.01 µM) it was 0.273; with Linsitinib + Tozasertib (first compound 0.03162 µM), 0.308. Besides, the figures for the relative viability in the experiment with Linsitinib + Tozasertib (first compound 0.1 µM), with Linsitinib + Tozasertib (first compound 0.3162 µM) and with Linsitinib + Tozasertib (first compound 1 µM) were 0.272, 0.296 and 0.199, respectively.
In the case of NCI-H1650, the relative viability in the experiment with Ispinesib + Foretinib (first compound 0.001 µM) was 1.27; with Ispinesib + Foretinib (first compound 0.003162 µM) it was 1.44; with Ispinesib + Foretinib (first compound 0.01 µM), 1.12; with Ispinesib + Foretinib (first compound 0.03162 µM), 0.305; in the experiment with Ispinesib + Foretinib (first compound 0.1 µM), 0.273; with Ispinesib + OSI-027 (first compound 0.001 µM), 0.573. The relative viability was found to be 0.718 in the experiment with Ispinesib + OSI-027 (first compound 0.003162 µM); 0.623 in the experiment with Ispinesib + OSI-027 (first compound 0.01 µM); 0.174 in the experiment with Ispinesib + OSI-027 (first compound 0.03162 µM); 0.271 in the experiment with Ispinesib + OSI-027 (first compound 0.1 µM); 0.412 with Linsitinib + Tozasertib (first compound 0.01 µM); 0.549 with Linsitinib + Tozasertib (first compound 0.03162 µM). Moreover, the figures for the relative viability in the experiment with Linsitinib + Tozasertib (first compound 0.1 µM), with Linsitinib + Tozasertib (first compound 0.3162 µM) and with Linsitinib + Tozasertib (first compound 1 µM) were 0.412, 0.323 and 0.288, respectively.
For the cell line NCI-H1648, the relative viability with Ispinesib + OSI-027 (first compound 0.001 µM) was determined as 0.274; with Ispinesib + OSI-027 (first compound 0.003162 µM) it was 0.312; with Ispinesib + OSI-027 (first compound 0.01 µM) it was 0.212; in the experiment with Ispinesib + OSI-027 (first compound 0.03162 µM), 0.226; with Ispinesib + OSI-027 (first compound 0.1 µM), 0.238; in the experiment with Linsitinib + Tozasertib (first compound 0.01 µM), 0.5. The relative viability in the experiment with Linsitinib + Tozasertib (first compound 0.03162 µM) amounted to 0.697; with Linsitinib + Tozasertib (first compound 0.1 µM), 0.412; in the experiment with Linsitinib + Tozasertib (first compound 1 µM) it was 0.396; with Ispinesib + AZD7762 (first compound 0.001 µM), 0.653; with Ispinesib + AZD7762 (first compound 0.003162 µM) it was 0.774; in the experiment with Ispinesib + AZD7762 (first compound 0.01 µM) it was 0.682. Moreover, the relative viability with Ispinesib + AZD7762 (first compound 0.03162 µM) was 0.616; in the experiment with Ispinesib + AZD7762 (first compound 0.1 µM), 0.273.
As to EBC-1, the relative viability in the experiment with Ispinesib + Foretinib (first compound 0.001 µM) is 0.111; with Ispinesib + Foretinib (first compound 0.003162 µM) it was 0.101; in the experiment with Ispinesib + Foretinib (first compound 0.01 µM), 0.109; with Ispinesib + Foretinib (first compound 0.03162 µM) it was 0.0927; in the experiment with Ispinesib + Foretinib (first compound 0.1 µM), 0.0893.
For IA-LM, in that order: 1.21, 1.51, 1.45, 1.06 and 0.132.
On to COR-L 105, for which the relative viability with Ispinesib + Foretinib (first compound 0.001 µM) came to 1.46; in the experiment with Ispinesib + Foretinib (first compound 0.003162 µM) it was 1.01; with Ispinesib + Foretinib (first compound 0.01 µM) it was 1.03; with Ispinesib + Foretinib (first compound 0.03162 µM) it was 0.468; with Ispinesib + Foretinib (first compound 0.1 µM), 0.345; with Ispinesib + OSI-027 (first compound 0.001 µM), 0.769. Also, the relative viability was determined as 0.603 with Ispinesib + OSI-027 (first compound 0.003162 µM); 0.585 with Ispinesib + OSI-027 (first compound 0.01 µM); 0.266 in the experiment with Ispinesib + OSI-027 (first compound 0.03162 µM); 0.305 with Ispinesib + OSI-027 (first compound 0.1 µM); 0.421 with Linsitinib + Tozasertib (first compound 0.01 µM); 0.324 in the experiment with Linsitinib + Tozasertib (first compound 0.03162 µM). The relative viability stood at 0.356 in the experiment with Linsitinib + Tozasertib (first compound 0.1 µM), 0.298 in the experiment with Linsitinib + Tozasertib (first compound 0.3162 µM) and 0.309 in the experiment with Linsitinib + Tozasertib (first compound 1 µM).
